Assays:
NIH 3T3 fibroblasts = experiment: Hydrophobic and polar domain transfection analysis of PolyGum derivatives (luciferase specific activity, pGL3I+); assay type: cell-based, Murine; conditions: for transfection effectiveness ranking among methoxy PolyGum derivatives: 1 microgram plasmid DNA pGL3I+, 48 hours (FIG. 9)
Description: (§1) Transfection activity was measured using the luciferase assay. Luciferase assays were performed with a luciferase assay kit (purchased from Analytical Luminescence Laboratories) using a Monolight 2010 luminometer (Analytical Luminescence Laboratories, San Diego, Calif.) according to the manufacturer's instructions. The media was removed from the transfected cells via aspiration. 0.5 mL of luciferase buffer/well was added, and the cells were placed on ice for 15 min. Luciferase light emissions from 100 μl of the lysate were measured using the luminometer.
Shown in FIG. 9 are hydrophobic and polar domain transfection results for various synthesized PolyGum derivatives. In the tests, 1.0×10^5 NIH 3T3 fibroblasts were plated 24 hours prior to transfection. Cell lysates were obtained 48 hours after transfection and assayed for luciferase specific activity. The data presented in FIG. 9 corresponds to the ability of the subject cationic lipid to mediated delivery of 1 microgram of plasmid DNA (pGL3I+).

NIH 3T3 cells = experiment: Luciferase transfection assay (pCMVL plasmid), NIH 3T3 cells; assay type: cell-based, Murine
Description: NIH 3T3 cells were grown in Dulbecco's modified Eagles medium (DMEM)+10% fetal calf serum. The DNA plasmid pCMVL was prepared by standard methods and used as a 369 ng/μl solution in TE, pH=7.6. The luciferase reporter plasmid pCMVL was prepared at UC Davis, and consists of the P. pyralis luciferase cDNA subcloned into the plasmid pRc/CMV (Invitrogen).
Multilamellar and small sonicated vesicles were prepared by addition of the cationic lipid DOHME together with DOPE, both as solutions in chloroform, to a 5 mL sample vial. The chloroform was removed via rotary evaporation with the water bath set at a constant temperature of 37° C. The resulting thin lipid films were placed under high vacuum overnight to insure that all traces of solvent had been removed. The lipid mixture was resuspended using distilled water ([…] total lipid/1 mL water) and vortex mixed to give a suspension of MLVs. This cloudy suspension was sonicated for fifteen minutes using a bath sonicator until a clear suspension containing SVs was obtained.
Sequential addition of DMEM (with or without 10% fetal calf serum), pCMVL plasmid (for n=4, 4 μg), and liposome formulation into a 2 mL Eppendorf tube gave a total volume of 800 μl. The relative amount of liposome:pCMVL plasmid used was determined by the desired cationic lipid:DNA phosphate charge ratio. The mixing of these substances was followed by thorough vortexing.
Usually, 24 well tissue culture plates containing 5.0×10^4 cells/well rapidly dividing adherent NIH 3T3 cells per well were transfected. The growth media was removed via aspiration and the cells were washed once with 0.5 mL PBS/well. […]
as §1, with “The media was removed from the transfected cells via aspiration. 0.5 mL of luciferase buffer/well was added, and the cells were placed on ice for 15 min.” left out

transfected cells = experiment: Alamar Blue toxicity assay; assay type: cell-based
Description: Usually, 24 well tissue culture plates containing 5.0×10^4 cells/well rapidly dividing adherent NIH 3T3 cells per well were transfected. The growth media was removed via aspiration and the cells were washed once with 0.5 mL PBS/well. A 200 μl aliquot of liposome-DNAcomplex was added to each well and the cells were allowed to incubate for 4 hr. at 37° C. If desired, at this time, 1 mL of DMEM+10% fetal calf serum/well was added and the cells were allowed to incubate for an additional 48 hr, after which assays of toxicity and/or efficacy were performed. Equivalent procedures were utilized for the DU-145 cells.
Alamar blue (Alamar Biosciences, Sacramento, Calif.), was diluted in cell culture media to 10%, added to cells, and incubated for up to two hours. Reduced dye was quantitated using a CytoFluor 2300 fluorescence plate reader with a 530 nm excitation filter and a 590 nm emission filter. Values expressed represent fluorescence less background. The same transfected cells can subsequently be assayed for reporter protein activity after Alamar Blue analysis.

**Q.** For CCCCCCCCCCCC(=O)OC(C[N+](C)(C)CCOC)C(C[N+](C)(C)CCOC)OC(=O)CCCCCCCCCCC (racemic) [DL-PG-Me], which “transfection effectiveness ranking among methoxy PolyGum derivatives” value (NIH 3T3 fibroblasts) is on record?
**A.** least effective in transfection

**Q.** Which results are given for CCCCCCCC/C=C\CCCCCCCC(=O)OC(C[N+](C)(C)CCO)C(C[N+](C)(C)CCO)OC(=O)CCCCCCC/C=C\CCCCCCCC.[I-].[I-] (centres unmarked) [PolyGum, N,N,N',N'-tetramethyl-N,N'-bis(2-hydroxyethyl)-2,3-di(oleoyloxy)-1,4-butanediaminium iodide]?
**A.** effect of serum on PolyGum (MLV) mediated transfection (NIH 3T3 cells; MLV, serum-free versus 10% calf serum (FIG. 3)): greatly increased transfection is found with serum-free conditions than in the presence of 10% calf serum; efficiency of transfection as mole ratio of DOPE to PolyGum is increased (NIH 3T3 cells; SV, serum-free (FIG. 5)): the efficiency of transfection is lowered in a generally linear fashion; effect of serum on PolyGum mediated transfection under other transfection conditions (NIH 3T3 cells; other transfection conditions, with serum): little change is noted with serum transfection; toxicity versus LIPOFECTIN and several other amine containing vesicles (transfected cells; PolyGum MLV formulation): less toxicity; toxicity versus LIPOFECTIN and several other amine containing vesicles (transfected cells; PolyGum SV formulation): less toxicity

**Q.** How did the “transfection efficiency, methoxy versus non-methoxy form” value (NIH 3T3 fibroblasts; DM-PG-Me versus DM-PG-OH (FIG. 9)) turn out when CCCCCCCCCCCCCC(=O)OC(C[N+](C)(C)CCOC)C(C[N+](C)(C)CCOC)OC(=O)CCCCCCCCCCCCC (centres unmarked) [DM-PG-Me] was run?
**A.** more efficient in transfection than the non-methoxy form

**Q.** CCCCCCCCCCCCCCCC(=O)OC(C[N+](C)(C)CCOC)C(C[N+](C)(C)CCOC)OC(=O)CCCCCCCCCCCCCCC (centres unmarked) [DP-PG-Me] was tested. Which “transfection effectiveness ranking among methoxy PolyGum derivatives” value (NIH 3T3 fibroblasts) did it give?
**A.** most effective in transfection
